Experimental data taken from patent US20260224494A1, “MILVEXIAN PHARMACEUTICAL COMPOSITIONS” (BRISTOL-MYERS SQUIBB COMPANY, priority 2023, published 2026).
In brackets after ≈: the same amount, converted by molar mass. Like-named read-outs stand apart in the source and are kept apart here.

Experiments:
[1] = Solubility of milvexian forms in organic solvent systems; assay type: physicochemical
Protocol: While heating of the feed solution is a viable solution for production, it is a more complex set-up and with risk of crashing out dissolved solids in case of cold spots and plant safety. Various solvent systems (See Table 11 below) were investigated with primary focus on solvent systems containing DCM due to its low boiling point and excellent solubilization properties.
Based on the data it was determined that 70/30 w/w % DCM/MeOH and 80/20 w/w % were promising solvent mixtures and more accurate solubility determination was carried out for 80/20 w/w % DCM/MeOH for both FORM A and P1.Acetone solvate at 20° C. with the results shown in Table 12 below.
P1.Acetone was the preferred crystalline form of milvexian for physical stability and manufacturability reasons. Based on the above, 80/20 w/w % DCM/MeOH solvent system was selected for development due to highly increase solubility over the 90/10 w/w % Acetone/Water solvent system.

[2] = Acetone/Water 90:10 w/w, cited from earlier work

C[C@@H]1CCC[C@H](n2cnc(-c3cc(Cl)ccc3-n3cc(Cl)nn3)cc2=O)c2cc(ccn2)-c2c(cnn2C(F)F)NC1=O [FORM A]
solubility at 24 hours ([1]; 70/30 DCM/MeOH, 20 °C, organic solvent or mixture, thermodynamic from solid, 70/30 DCM/MeOH, 20° C., 24 hours, read-out: Solubility in mg/mL solution 24 hours): 221 mg/mL (≈ 353 mM)
Solubility in mg/mL solution 2 weeks ([1]; 70/30 DCM/MeOH, 20° C.): 204 mg/mL (≈ 326 mM)
Solubility in mg/mL solution 2 weeks ([1]; 80/20 DCM/MeOH, 20° C.): 255 mg/mL (≈ 407 mM)
Solubility in mg/mL solution 24 hours ([1]; 80/20 DCM/MeOH, 20° C., 24 hours): 272 mg/mL (≈ 434 mM)
solubility ([1]; 80/20 w/w % DCM/MeOH, listed as crystalline Form A of milvexian free form): 255 mg/mL (≈ 407 mM)
solubility ([1]; DCM/MeOH solvent systems of Table 12, 20 °C, organic solvent or mixture, DCM/MeOH solvent systems of Table 12, read-out: solubilities achievable): > 220 mg/mL

C[C@@H]1CCC[C@H](n2cnc(-c3cc(Cl)ccc3-n3cc(Cl)nn3)cc2=O)c2cc(ccn2)-c2c(cnn2C(F)F)NC1=O
solubility ([1]; 80/20 w/w % DCM/MeOH, 20 °C, organic solvent or mixture, 80/20 w/w % DCM/MeOH, read-out: solubility): 230 mg/mL (≈ 367 mM)

C[C@@H]1CCC[C@H](n2cnc(-c3cc(Cl)ccc3-n3cc(Cl)nn3)cc2=O)c2cc(ccn2)-c2c(cnn2C(F)F)NC1=O [Milvexian, (5R,9S)-9-(4-(5-chloro-2-(4-chloro-1H-1,2,3-triazol-1-yl)phenyl)-6-oxopyrimidin-1(6H)-yl)-21-(difluoromethvl)-5-methyl-21H-3-aza-1(4,2)-pyridina-2(5,4)-pyrazolacyclononaphan-4-one]
solubility ([2]; 20° C.): 36 mg/mL (≈ 57.5 mM)
solubility ([2]; 50° C.): 70 mg/mL (≈ 112 mM)
solubility ([1]; 30/70 DCM/MeOH, 20 °C, organic solvent or mixture, 30/70 DCM/MeOH, temperature 20, read-out: Solubility in mg/mL solution): 16 mg/mL (≈ 25.5 mM)
solubility ([1]; 30/70 DCM/MeOH, 40 °C, organic solvent or mixture, 30/70 DCM/MeOH, temperature 40, read-out: Solubility in mg/mL solution): 26 mg/mL (≈ 41.5 mM)
Solubility description ([1]; 30/70 DCM/MeOH, temperature 20): Sparingly soluble
Solubility description ([1]; 30/70 DCM/MeOH, temperature 40): Sparingly soluble
solubility ([1]; 40/60 DCM/MeOH, 20 °C, organic solvent or mixture, 40/60 DCM/MeOH, temperature 20, read-out: Solubility in mg/mL solution): 29 mg/mL (≈ 46.3 mM)
solubility ([1]; 40/60 DCM/MeOH, 40 °C, organic solvent or mixture, 40/60 DCM/MeOH, temperature 40, read-out: Solubility in mg/mL solution): 44 mg/mL (≈ 70.2 mM)
Solubility description ([1]; 40/60 DCM/MeOH, temperature 20): Sparingly soluble
Solubility description ([1]; 40/60 DCM/MeOH, temperature 40): Soluble
solubility ([1]; 50/50 DCM/MeOH, 20 °C, organic solvent or mixture, 50/50 DCM/MeOH, temperature 20, read-out: Solubility in mg/mL solution): 58 mg/mL (≈ 92.6 mM)
solubility ([1]; 50/50 DCM/MeOH, 40 °C, organic solvent or mixture, 50/50 DCM/MeOH, temperature 40, read-out: Solubility in mg/mL solution): 77 mg/mL (≈ 123 mM)
Solubility description ([1]; 50/50 DCM/MeOH, temperature 20): Soluble
Solubility description ([1]; 50/50 DCM/MeOH, temperature 40): Soluble
solubility ([1]; 60/40 DCM/MeOH, 20 °C, organic solvent or mixture, 60/40 DCM/MeOH, temperature 20, read-out: Solubility in mg/mL solution): 120 mg/mL (≈ 192 mM)
solubility ([1]; 60/40 DCM/MeOH, 40 °C, organic solvent or mixture, 60/40 DCM/MeOH, temperature 40, read-out: Solubility in mg/mL solution): > 200 mg/mL
Solubility description ([1]; 60/40 DCM/MeOH, temperature 20): Freely Soluble
Solubility description ([1]; 60/40 DCM/MeOH, temperature 40): Freely Soluble
solubility ([1]; 70/30 DCM/MeOH, 20 °C, organic solvent or mixture, 70/30 DCM/MeOH, temperature 20, read-out: Solubility in mg/mL solution): > 200 mg/mL
solubility ([1]; 70/30 DCM/MeOH, 40 °C, organic solvent or mixture, 70/30 DCM/MeOH, temperature 40, read-out: Solubility in mg/mL solution): > 200 mg/mL
Solubility description ([1]; 70/30 DCM/MeOH, temperature 20): Freely Soluble
Solubility description ([1]; 70/30 DCM/MeOH, temperature 40): Freely Soluble
solubility ([1]; 80/20 DCM/MeOH, 20 °C, organic solvent or mixture, 80/20 DCM/MeOH, temperature 20, read-out: Solubility in mg/mL solution): > 200 mg/mL
solubility ([1]; 80/20 DCM/MeOH, 40 °C, organic solvent or mixture, 80/20 DCM/MeOH, temperature 40, read-out: Solubility in mg/mL solution): > 200 mg/mL
Solubility description ([1]; 80/20 DCM/MeOH, temperature 20): Freely Soluble
Solubility description ([1]; 80/20 DCM/MeOH, temperature 40): Freely Soluble
solubility ([1]; 90/10 DCM/MeOH, 20 °C, organic solvent or mixture, 90/10 DCM/MeOH, temperature 20, read-out: Solubility in mg/mL solution): > 200 mg/mL
solubility ([1]; 90/10 DCM/MeOH, 40 °C, organic solvent or mixture, 90/10 DCM/MeOH, temperature 40, read-out: Solubility in mg/mL solution): > 200 mg/mL
Solubility description ([1]; 90/10 DCM/MeOH, temperature 20): Freely Soluble
Solubility description ([1]; 90/10 DCM/MeOH, temperature 40): Freely Soluble
solubility ([1]; 100% DCM, 20 °C, organic solvent or mixture, 100% DCM, temperature 20, read-out: Solubility in mg/mL solution): 29 mg/mL (≈ 46.3 mM)
solubility ([1]; 100% DCM, 40 °C, organic solvent or mixture, 100% DCM, temperature 40, read-out: Solubility in mg/mL solution): 51 mg/mL (≈ 81.4 mM)
Solubility description ([1]; 100% DCM, temperature 20): Sparingly soluble
Solubility description ([1]; 100% DCM, temperature 40): Soluble
solubility ([1]; 100% MeOH, 20 °C, organic solvent or mixture, 100% MeOH, temperature 20, read-out: Solubility in mg/mL solution): 4.2 mg/mL (≈ 6.7 mM)
solubility ([1]; 100% MeOH, 40 °C, organic solvent or mixture, 100% MeOH, temperature 40, read-out: Solubility in mg/mL solution): 6.6 mg/mL (≈ 10.5 mM)
Solubility description ([1]; 100% MeOH, temperature 20): Slightly soluble
Solubility description ([1]; 100% MeOH, temperature 40): Slightly soluble
solubility ([1]; acetone/water 90/10 w/w %, 20 °C, organic solvent or mixture, acetone/water (90/10 w/w %), room temperature, read-out: solubility): 36 mg/mL (≈ 57.5 mM)
solubility ([1]; acetone/water 90/10 w/w %, 49 °C, organic solvent or mixture, acetone/water (90/10 w/w %), 49° C., read-out: solubility): 70 mg/mL (≈ 112 mM)
